Laboratory results reported in patent US7846959B2, “Raf modulators and methods of use” (Exelixis, Inc., priority 2004, dated 2010).

Assays:
c-Raf = c-Raf (Homo sapiens, UniProt P04049); assay: Luciferase-coupled chemiluminescence kinase assay (ATP consumption), c-Raf; type: biochemical; settings: read-out: cRaf-1 (inhibition indicated as IC50)
Procedure, shortened: (§1)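 Enzyme ([…]) was pre-incubated with compound for 30 min at room temperature in 20 mM Tris pH 7.5, 10 mM MgCl2, 0.03% TX-100, 1 mM DTT. ATP was added and the reaction ran 3 h at ambient temperature. Remaining ATP was read by luciferase-luciferin chemiluminescence, giving IC50 values.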

B-Raf = B-Raf (Homo sapiens, UniProt P15056); assay: Luciferase-coupled chemiluminescence kinase assay (ATP consumption), B-Raf; type: biochemical; settings: read-out: bRaf (inhibition indicated as IC50)
Procedure, shortened: as §1

Chain of c-Raf (P04049 whole entry): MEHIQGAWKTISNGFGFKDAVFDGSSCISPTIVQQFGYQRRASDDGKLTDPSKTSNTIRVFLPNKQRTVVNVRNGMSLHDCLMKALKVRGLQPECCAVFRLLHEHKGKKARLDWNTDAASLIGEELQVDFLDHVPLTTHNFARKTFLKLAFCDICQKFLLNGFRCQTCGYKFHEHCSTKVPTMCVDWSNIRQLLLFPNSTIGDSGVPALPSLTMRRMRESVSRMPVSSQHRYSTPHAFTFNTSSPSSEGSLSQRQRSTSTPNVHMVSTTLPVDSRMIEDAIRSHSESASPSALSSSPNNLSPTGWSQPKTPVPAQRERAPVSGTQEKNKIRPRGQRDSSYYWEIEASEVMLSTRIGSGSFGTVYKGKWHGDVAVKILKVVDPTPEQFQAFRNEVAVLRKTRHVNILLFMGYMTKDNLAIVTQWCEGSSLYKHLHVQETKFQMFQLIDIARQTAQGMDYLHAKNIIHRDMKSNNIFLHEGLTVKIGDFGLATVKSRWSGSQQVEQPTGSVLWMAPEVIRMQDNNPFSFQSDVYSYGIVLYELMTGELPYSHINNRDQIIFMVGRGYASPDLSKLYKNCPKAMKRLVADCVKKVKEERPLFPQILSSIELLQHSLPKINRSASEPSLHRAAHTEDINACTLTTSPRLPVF
Chain of B-Raf (P15056 whole entry): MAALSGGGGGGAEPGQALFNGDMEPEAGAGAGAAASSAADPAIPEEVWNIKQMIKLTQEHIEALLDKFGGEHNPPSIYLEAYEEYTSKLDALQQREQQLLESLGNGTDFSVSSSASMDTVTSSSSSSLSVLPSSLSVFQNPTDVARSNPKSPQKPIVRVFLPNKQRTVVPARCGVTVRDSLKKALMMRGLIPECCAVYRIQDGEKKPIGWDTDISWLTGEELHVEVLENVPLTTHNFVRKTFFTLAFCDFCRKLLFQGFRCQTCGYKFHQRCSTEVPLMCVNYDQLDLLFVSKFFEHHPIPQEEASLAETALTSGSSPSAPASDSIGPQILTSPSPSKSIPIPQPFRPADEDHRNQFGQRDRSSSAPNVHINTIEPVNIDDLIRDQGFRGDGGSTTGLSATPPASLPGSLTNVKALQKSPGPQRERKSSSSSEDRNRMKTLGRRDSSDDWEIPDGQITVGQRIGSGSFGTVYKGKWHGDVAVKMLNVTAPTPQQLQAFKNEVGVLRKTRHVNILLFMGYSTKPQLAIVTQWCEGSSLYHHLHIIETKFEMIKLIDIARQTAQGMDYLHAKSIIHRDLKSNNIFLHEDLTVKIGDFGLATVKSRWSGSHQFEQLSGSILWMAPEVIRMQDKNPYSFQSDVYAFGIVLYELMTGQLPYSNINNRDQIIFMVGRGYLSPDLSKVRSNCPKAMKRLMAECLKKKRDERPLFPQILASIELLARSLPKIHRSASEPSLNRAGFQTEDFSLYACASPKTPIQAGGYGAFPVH

IC50 (c-Raf) [nM] | IC50 (B-Raf) [nM] | Compound
< 100 | < 100 | COc1cccc(N2C(=O)c3ccccc3C2(O)c2ccc3nc(Nc4ncccn4)[nH]c3c2)c1 (stereo not shown) [Entry 373, 3-hydroxy-2-[3-(methyloxy)phenyl]-3-[2-(pyrimidin-2-ylamino)-1H-benzimidazol-6-yl]-2,3-dihydro-1H-isoindol-1-one]
< 100 | < 100 | Cc1cccc(N2C(=O)c3ccccc3C2(O)c2ccc3nc(Nc4ncccn4)[nH]c3c2)c1 (stereo not shown) [Entry 374, 3-hydroxy-2-(3-methylphenyl)-3-[2-(pyrimidin-2-ylamino)-1H-benzimidazol-6-yl]-2,3-dihydro-1H-isoindol-1-one]
< 100 | < 100 | Cc1ccc(Cl)cc1N1C(=O)c2ccccc2C1(O)c1ccc2nc(Nc3ncccn3)[nH]c2c1 (stereo not shown) [Entry 375, 2-(5-chloro-2-methylphenyl)-3-hydroxy-3-[2-(pyrimidin-2-ylamino)-1H-benzimidazol-6-yl]-2,3-dihydro-1H-isoindol-1-one]
< 100 | < 100 | O=C1c2ccccc2C(O)(c2ccc3[nH]c(Nc4ncc(Cl)cn4)nc3c2)N1c1cccc(Cl)c1F (stereo not shown) [Entry 384, 2-(3-chloro-2-fluorophenyl)-3-{2-[(5-chloropyrimidin-2-yl)amino]-1H-benzimidazol-5-yl}-3-hydroxy-2,3-dihydro-1H-isoindol-1-one]
< 100 | < 100 | Cc1ccnc(Nc2nc3cc(C4(O)c5ccccc5C(=O)N4c4cccc(Cl)c4F)ccc3[nH]2)n1 (stereo not shown) [Entry 385, 2-(3-chloro-2-fluorophenyl)-3-hydroxy-3-{2-[(4-methylpyrimidin-2-yl)amino]-1H-benzimidazol-5-yl}-2,3-dihydro-1H-isoindol-1-one]
< 100 | < 100 | COc1cc(C)nc(Nc2nc3cc(C4(O)c5ccccc5C(=O)N4c4cccc(Cl)c4F)ccc3[nH]2)n1 (stereo not shown) [Entry 387, 2-(3-chloro-2-fluorophenyl)-3-hydroxy-3-(2-{[4-methyl-6-(methyloxy)pyrimidin-2-yl]amino}-1H-benzimidazol-5-yl)-2,3-dihydro-1H-isoindol-1-one]
< 100 | < 100 | Cc1cccc(N2C(=O)c3ccccc3C2(O)c2ccc3nc(Nc4cnccn4)[nH]c3c2)c1 (stereo not shown) [Entry 388, 3-hydroxy-2-(3-methylphenyl)-3-[2-(pyrazin-2-ylamino)-1H-benzimidazol-6-yl]-2,3-dihydro-1H-isoindol-1-one]
< 100 | < 100 | Cc1ccc(Cl)cc1N1C(=O)c2ccccc2C1(O)c1ccc2nc(Nc3cnccn3)[nH]c2c1 (stereo not shown) [Entry 389, 2-(5-chloro-2-methylphenyl)-3-hydroxy-3-[2-(pyrazin-2-ylamino)-1H-benzimidazol-6-yl]-2,3-dihydro-1H-isoindol-1-one]
< 100 | < 100 | COC(=O)Nc1nc2ccc(C3(O)c4ccccc4C(=O)N3c3cccc(C)c3F)cc2[nH]1 (stereo not shown) [Entry 390, methyl {6-[2-(2-fluoro-3-methylphenyl)-1-hydroxy-3-oxo-2,3-dihydro-1H-isoindol-1-yl]-1H-benzimidazol-2-yl}carbamate]
< 100 | < 100 | COc1cccc(N2C(=O)c3ccccc3C2(O)c2ccc3[nH]c(Nc4cnccn4)nc3c2)c1 (stereo not shown) [Entry 391, 3-hydroxy-2-[3-(methyloxy)phenyl]-3-[2-(pyrazin-2-ylamino)-1H-benzimidazol-5-yl]-2,3-dihydro-1H-isoindol-1-one]

Continued, compound first:

Compound | IC50 (c-Raf) [nM] | IC50 (B-Raf) [nM]
COC(=O)Nc1nc2cc(C3(O)c4ccccc4C(=O)N3c3cc(OC)ccc3C)ccc2[nH]1 (stereo not shown) [Entry 368, methyl (5-{1-hydroxy-2-[2-methyl-5-(methyloxy)phenyl]-3-oxo-2,3-dihydro-1H-isoindol-1-yl}-1H-benzimidazol-2-yl)carbamate] | < 100 | < 100
C#Cc1cccc(N2C(=O)c3cccc(F)c3C2(O)c2ccc3[nH]c(NC(=O)OC)nc3c2)c1F (stereo not shown) [Entry 369, methyl {5-[2-(3-ethynyl-2-fluorophenyl)-7-fluoro-1-hydroxy-3-oxo-2,3-dihydro-1H-isoindol-1-yl]-1H-benzimidazol-2-yl}carbamate] | < 100 | < 100
CC#Cc1cccc(N2C(=O)c3ccccc3C2(O)c2ccc3[nH]c(NC(=O)OC)nc3c2)c1F (stereo not shown) [Entry 370, methyl {5-[2-(2-fluoro-3-prop-1-yn-1-ylphenyl)-1-hydroxy-3-oxo-2,3-dihydro-1H-isoindol-1-yl]-1H-benzimidazol-2-yl}carbamate] | 100 to 1000 | 100 to 1000
COC(=O)Nc1nc2cc(C3(O)c4c(F)cccc4C(=O)N3c3cc(Cl)ccc3C)ccc2[nH]1 (stereo not shown) [Entry 371, methyl {5-[2-(5-chloro-2-methylphenyl)-7-fluoro-1-hydroxy-3-oxo-2,3-dihydro-1H-isoindol-1-yl]-1H-benzimidazol-2-yl}carbamate] | < 100 | < 100
C#Cc1cccc(N2C(=O)c3ccccc3C2(O)c2ccc3[nH]c(NC(=O)OC)nc3c2)c1C (stereo not shown) [Entry 372, methyl {5-[2-(3-ethynyl-2-methylphenyl)-1-hydroxy-3-oxo-2,3-dihydro-1H-isoindol-1-yl]-1H-benzimidazol-2-yl}carbamate] | < 100 | < 100
COC(=O)Nc1nc2ccc(C3(O)c4c(F)ccc(F)c4C(=O)N3c3cc(Cl)ccc3C)cc2[nH]1 (stereo not shown) [Entry 376, methyl {6-[2-(5-chloro-2-methylphenyl)-4,7-difluoro-1-hydroxy-3-oxo-2,3-dihydro-1H-isoindol-1-yl]-1H-benzimidazol-2-yl}carbamate] | < 100 | < 100
C#Cc1cccc(N2C(=O)c3ccccc3C2c2ccc3[nH]c(NC(=O)OC)nc3c2)c1F (stereo not shown) [Entry 377, methyl {5-[2-(3-ethynyl-2-fluorophenyl)-3-oxo-2,3-dihydro-1H-isoindol-1-yl]-1H-benzimidazol-2-yl}carbamate] | < 100 | < 100
O=C1c2ccccc2C(O)(c2ccc3[nH]c(Nc4ccc(Cl)nn4)nc3c2)N1c1cccc(Cl)c1F (stereo not shown) [Entry 378, 2-(3-chloro-2-fluorophenyl)-3-{2-[(6-chloropyridazin-3-yl)amino]-1H-benzimidazol-5-yl}-3-hydroxy-2,3-dihydro-1H-isoindol-1-one] | 100 to 1000 | 100 to 1000
O=C1c2c(F)ccc(F)c2C(O)(c2ccc3[nH]c(Nc4ncccn4)nc3c2)N1c1cccc(Cl)c1F (stereo not shown) [Entry 379, 2-(3-chloro-2-fluorophenyl)-4,7-difluoro-3-hydroxy-3-[2-(pyrimidin-2-ylamino)-1H-benzimidazol-5-yl]-2,3-dihydro-1H-isoindol-1-one] | < 100 | < 100
COC(=O)Nc1nc2cc(C3(O)c4ccccc4C(=O)N3c3cc(C)ccc3F)ccc2[nH]1 (stereo not shown) [Entry 380, methyl {5-[2-(2-fluoro-5-methylphenyl)-1-hydroxy-3-oxo-2,3-dihydro-1H-isoindol-1-yl]-1H-benzimidazol-2-yl}carbamate] | < 100 | < 100
COC(=O)Nc1nc2cc(C3(O)c4ccccc4C(=O)N3c3cc(OC)ccc3F)ccc2[nH]1 (stereo not shown) [Entry 381, methyl (5-{2-[2-fluoro-5-(methyloxy)phenyl]-1-hydroxy-3-oxo-2,3-dihydro-1H-isoindol-1-yl}-1H-benzimidazol-2-yl)carbamate] | < 100 | < 100
COC(=O)Nc1nc2cc(C3(O)c4ccccc4C(=O)N3c3cc(C)ccc3OC)ccc2[nH]1 (stereo not shown) [Entry 382, methyl (5-{1-hydroxy-2-[5-methyl-2-(methyloxy)phenyl]-3-oxo-2,3-dihydro-1H-isoindol-1-yl}-1H-benzimidazol-2-yl)carbamate] | < 100 | < 100
C#Cc1cc(C)cc(N2C(=O)c3ccccc3C2(O)c2ccc3[nH]c(NC(=O)OC)nc3c2)c1 (stereo not shown) [Entry 383, methyl {5-[2-(3-ethynyl-5-methylphenyl)-1-hydroxy-3-oxo-2,3-dihydro-1H-isoindol-1-yl]-1H-benzimidazol-2-yl}carbamate] | < 100 | < 100
COc1cc(OC)nc(Nc2nc3cc(C4(O)c5ccccc5C(=O)N4c4cccc(Cl)c4F)ccc3[nH]2)n1 (stereo not shown) [Entry 386, 3-(2-{[4,6-bis(methyloxy)pyrimidin-2-yl]amino}-1H-benzimidazol-5-yl)-2-(3-chloro-2-fluorophenyl)-3-hydroxy-2,3-dihydro-1H-isoindol-1-one] | < 100 | < 100
COC(=O)Nc1nc2ccc(C(=O)c3ccccc3C(=O)NCc3cccs3)cc2[nH]1 [Entry 392, methyl {6-[(2-{[(2-thienylmethyl)amino]carbonyl}phenyl)carbonyl]-1H-benzimidazol-2-yl}carbamate] | < 100 | < 100
COC(=O)Nc1nc2ccc(C(=O)c3ccccc3C(=O)Nc3cccc(Br)c3)cc2[nH]1 [Entry 394, methyl {6-[(2-{[(3-bromophenyl)amino]carbonyl}phenyl)carbonyl]-1H-benzimidazol-2-yl}carbamate] | < 100 | < 100
COC(=O)Nc1nc2ccc(C(=O)c3ccccc3C(=O)Nc3cccc(Cl)c3)cc2[nH]1 [Entry 395, methyl {6-[(2-{[(3-chlorophenyl)amino]carbonyl}phenyl)carbonyl]-1H-benzimidazol-2-yl}carbamate] | < 100 | < 100
COC(=O)Nc1nc2ccc(C(=O)c3ccccc3C(=O)Nc3cccc(OC)c3)cc2[nH]1 [Entry 397, methyl (6-{[2-({[3-(methyloxy)phenyl]amino}carbonyl)phenyl]carbonyl}-1H-benzimidazol-2-yl)carbamate] | < 100 | < 100
COC(=O)Nc1nc2ccc(C(=O)c3ccccc3C(=O)Nc3cccc(C(F)(F)F)c3)cc2[nH]1 [Entry 398, methyl (6-{[2-({[3-(trifluoromethyl)phenyl]amino}carbonyl)phenyl]carbonyl}-1H-benzimidazol-2-yl)carbamate] | < 100 | < 100
